Data taken from patent publication US12559464B2, “Quinazolinone dione compounds and uses thereof” (Edgewise Therapeutics, Inc., priority 2023, dated 2026).

Legend:
[1] = tested on: myosin ATPase, Rabbit Psoas myofibrils; assay: Myofibril ATPase assay, rabbit psoas (skeletal) myofibrils; format: biochemical; conditions: concentration required to reduce myosin ATP-ase activity by 25%; Rabbit Psoas Prep pCa 25 GEOM_MEAN
[2] = tested on: myosin ATPase, Porcine Atria myofibrils; assay: Myofibril ATPase assay, porcine atria myofibrils; format: biochemical; conditions: concentration required to reduce myosin ATP-ase activity by 25%; Porcine Atria Prep pCa 25 GEOM_MEAN
[3] = target: T1, myosin ATPase, Porcine Ventricle myofibrils (Sus scrofa, UniProt P79293); assay: Myofibril ATPase assay, porcine ventricle myofibrils; format: biochemical, porcine (Yucatan minipigs); conditions: concentration required to reduce myosin ATP-ase activity by 25%; Porcine Ventricle Prep pCa 25 GEOM_MEAN
T1 construct: Myofibrils from porcine cardiac muscle was isolated from the left ventricle of Yucatan minipigs; tissue Exemplar Genetics; host or cells: left ventricle of Yucatan minipigs, myofibrils
T1 sequence (P79293 whole entry): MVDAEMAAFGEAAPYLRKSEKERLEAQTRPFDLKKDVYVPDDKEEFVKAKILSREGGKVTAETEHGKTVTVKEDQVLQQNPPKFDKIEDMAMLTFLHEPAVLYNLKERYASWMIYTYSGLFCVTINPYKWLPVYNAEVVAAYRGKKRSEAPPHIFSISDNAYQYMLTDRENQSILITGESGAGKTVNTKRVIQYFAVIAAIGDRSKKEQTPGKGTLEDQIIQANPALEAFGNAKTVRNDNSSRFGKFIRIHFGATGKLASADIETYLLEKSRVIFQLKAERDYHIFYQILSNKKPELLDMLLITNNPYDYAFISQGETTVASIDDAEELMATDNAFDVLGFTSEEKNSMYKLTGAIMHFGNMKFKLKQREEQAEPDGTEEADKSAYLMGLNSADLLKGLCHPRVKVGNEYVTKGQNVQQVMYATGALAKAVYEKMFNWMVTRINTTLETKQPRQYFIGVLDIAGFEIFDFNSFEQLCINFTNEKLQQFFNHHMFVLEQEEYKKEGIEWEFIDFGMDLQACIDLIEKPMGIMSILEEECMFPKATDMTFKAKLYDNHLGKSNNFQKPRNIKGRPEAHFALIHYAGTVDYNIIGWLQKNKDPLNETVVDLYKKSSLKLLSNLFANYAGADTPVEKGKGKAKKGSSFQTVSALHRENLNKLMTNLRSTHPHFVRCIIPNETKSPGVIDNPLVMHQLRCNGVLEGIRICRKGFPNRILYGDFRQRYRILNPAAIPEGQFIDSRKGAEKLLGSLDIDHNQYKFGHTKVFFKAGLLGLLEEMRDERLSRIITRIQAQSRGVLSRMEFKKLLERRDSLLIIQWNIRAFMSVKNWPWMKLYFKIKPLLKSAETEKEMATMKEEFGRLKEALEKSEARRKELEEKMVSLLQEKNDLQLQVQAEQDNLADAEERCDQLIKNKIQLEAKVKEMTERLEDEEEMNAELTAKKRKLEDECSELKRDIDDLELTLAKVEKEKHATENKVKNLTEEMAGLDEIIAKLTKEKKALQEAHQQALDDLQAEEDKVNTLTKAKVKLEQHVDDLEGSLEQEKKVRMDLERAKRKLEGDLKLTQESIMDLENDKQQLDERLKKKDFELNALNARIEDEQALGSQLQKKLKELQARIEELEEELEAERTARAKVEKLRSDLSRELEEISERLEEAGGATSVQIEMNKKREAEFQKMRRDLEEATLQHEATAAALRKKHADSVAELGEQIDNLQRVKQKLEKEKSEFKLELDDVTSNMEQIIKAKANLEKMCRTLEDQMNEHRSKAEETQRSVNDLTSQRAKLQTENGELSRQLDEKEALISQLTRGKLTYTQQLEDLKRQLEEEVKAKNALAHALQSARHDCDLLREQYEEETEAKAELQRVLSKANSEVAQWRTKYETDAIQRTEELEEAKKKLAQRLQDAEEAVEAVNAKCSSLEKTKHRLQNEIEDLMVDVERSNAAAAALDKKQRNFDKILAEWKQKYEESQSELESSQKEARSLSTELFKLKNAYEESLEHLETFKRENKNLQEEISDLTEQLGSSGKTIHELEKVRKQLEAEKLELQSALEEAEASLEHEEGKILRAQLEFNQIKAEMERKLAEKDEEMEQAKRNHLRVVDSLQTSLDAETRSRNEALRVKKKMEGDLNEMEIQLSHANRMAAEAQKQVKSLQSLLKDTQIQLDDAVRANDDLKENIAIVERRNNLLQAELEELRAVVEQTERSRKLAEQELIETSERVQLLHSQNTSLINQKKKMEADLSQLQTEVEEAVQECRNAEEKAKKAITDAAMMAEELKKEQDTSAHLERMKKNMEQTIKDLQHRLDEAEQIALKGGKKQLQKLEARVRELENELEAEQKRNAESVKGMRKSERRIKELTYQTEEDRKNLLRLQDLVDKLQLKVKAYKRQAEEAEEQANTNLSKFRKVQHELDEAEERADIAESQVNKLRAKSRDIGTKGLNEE
Outline: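 Myofibrils from Yucatan minipig left ventricle; ADP production coupled via PK-LDH to NADH loss, read kinetically at 340 nm every 1.5–2 min for 75 min in PIPES/MgCl2 pH 7.0 buffer. Slopes normalized to vehicle and fit to 4-parameter logistic; values are concentrations giving 75% (inhibition) or 125% (activation) of vehicle activity.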

Compound	Rabbit Psoas EC25 (Y75 value) [1] [µM]	Porcine Atria EC25 (Y75 value) [2] [µM]	Porcine Ventricle EC25 (Y75 value) [3] [µM]
C[C@H](NC(=O)Cn1c(=O)[nH]c2c(F)cccc2c1=O)c1ccc(F)cc1F [Compound 406, (S)-N-(1-(2,4-difluorophenyl)ethyl)-2-(8-fluoro-2,4-dioxo-1,4-dihydroquinazolin-3(2H)-yl)acetamide]	12.297	63.31	100
C[C@H](NC(=O)Cn1c(=O)[nH]c2cc(Cl)ccc2c1=O)c1ccc(F)cc1F [Compound 407, (S)-2-(7-chloro-2,4-dioxo-1,4-dihydroquinazolin-3(2H)-yl)-N-(1-(2,4-difluorophenyl)ethyl)acetamide]	7.16	0.3539	100
C[C@H](NC(=O)Cn1c(=O)[nH]c2c(Cl)cccc2c1=O)c1ccc(F)cc1F [Compound 408, (S)-2-(8-chloro-2,4-dioxo-1,4-dihydroquinazolin-3(2H)-yl)-N-(1-(2,4-difluorophenyl)ethyl)acetamide]	100	100	100
CC(C)CN(C(=O)Cn1c(=O)[nH]c2ccccc2c1=O)C(C)c1ccc(F)cc1F (stereo not drawn) [Compound 506, N-(1-(2,4-difluorophenyl)ethyl)-2-(2,4-dioxo-1,4-dihydroquinazolin-3(2H)-yl)-N-isobutylacetamide]	65.656	33.59	29.03
O=C(Cn1c(=O)[nH]c2ccccc2c1=O)NC(c1ccc(Cl)cc1)c1cccs1 (stereo not drawn) [Compound 515, N-((4-chlorophenyl)(thiophen-2-yl)methyl)-2-(2,4-dioxo-1,4-dihydroquinazolin-3(2H)-yl)acetamide]	100	100	100
Cc1ccc(C(NC(=O)Cn2c(=O)[nH]c3ccccc3c2=O)c2ccccc2)cc1C (stereo not drawn) [Compound 516, N-((3,4-dimethylphenyl)(phenyl)methyl)-2-(2,4-dioxo-1,4-dihydroquinazolin-3(2H)-yl)acetamide]	100	100	100
CC(NC(=O)Cn1c(=O)[nH]c2ccccc2c1=O)c1cc(F)ccc1N(C)C (stereo not drawn) [Compound 518, N-(1-(2-(dimethylamino)-5-fluorophenyl)ethyl)-2-(2,4-dioxo-1,4-dihydroquinazolin-3(2H)-yl)acetamide]	100	100	100
CC(NC(=O)Cn1c(=O)[nH]c2ccccc2c1=O)c1cccc(F)c1 (stereo not drawn) [Compound 519, 2-(2,4-dioxo-1,4-dihydroquinazolin-3(2H)-yl)-N-(1-(3-fluorophenyl)ethyl)acetamide]	100	79.37	100
COc1ccc(F)cc1C(C)NC(=O)Cn1c(=O)[nH]c2ccccc2c1=O (stereo not drawn) [Compound 520, 2-(2,4-dioxo-1,4-dihydroquinazolin-3(2H)-yl)-N-(1-(5-fluoro-2-methoxyphenyl)ethyl)acetamide]	100	100	100
CC(c1ccc(F)cc1F)N(C)C(=O)Cn1c(=O)[nH]c2ccccc2c1=O (stereo not drawn) [Compound 521, N-(1-(2,4-difluorophenyl)ethyl)-2-(2,4-dioxo-1,4-dihydroquinazolin-3(2H)-yl)-N-methylacetamide]	1.26	100	100
COc1cccc(C(C)NC(=O)Cn2c(=O)[nH]c3ccccc3c2=O)c1 (stereo not drawn) [Compound 522, 2-(2,4-dioxo-1,4-dihydroquinazolin-3(2H)-yl)-N-(1-(3-methoxyphenyl)ethyl)acetamide]	100	100	100
CC(NC(=O)Cn1c(=O)[nH]c2ccccc2c1=O)c1ccccc1Cl (stereo not drawn) [Compound 523, N-(1-(2-chlorophenyl)ethyl)-2-(2,4-dioxo-1,4-dihydroquinazolin-3(2H)-yl)acetamide]	16.05	7.86	100
CC(NC(=O)Cn1c(=O)[nH]c2ccccc2c1=O)c1ccccc1Br (stereo not drawn) [Compound 524, N-(1-(2-bromophenyl)ethyl)-2-(2,4-dioxo-1,4-dihydroquinazolin-3(2H)-yl)acetamide]	11.968	73.54	100
CC(NC(=O)Cn1c(=O)[nH]c2ccccc2c1=O)c1cc(F)ccc1F (stereo not drawn) [Compound 525, N-(1-(2,5-difluorophenyl)ethyl)-2-(2,4-dioxo-1,4-dihydroquinazolin-3(2H)-yl)acetamide]	5.727	23.51	100
CC(NC(=O)Cn1c(=O)[nH]c2ccccc2c1=O)c1nccs1 (stereo not drawn) [Compound 601, 2-(2,4-dioxo-1,4-dihydroquinazolin-3(2H)-yl)-N-(1-(thiazol-2-yl)ethyl)acetamide]	100	100	100
Cc1nn(C)cc1C(C)NC(=O)Cn1c(=O)[nH]c2ccccc2c1=O (stereo not drawn) [Compound 602, N-(1-(1,3-dimethyl-1H-pyrazol-4-yl)ethyl)-2-(2,4-dioxo-1,4-dihydroquinazolin-3(2H)-yl)acetamide]	100	100	100
CC(NC(=O)Cn1c(=O)[nH]c2ccccc2c1=O)c1cnn(C)c1 (stereo not drawn) [Compound 603, 2-(2,4-dioxo-1,4-dihydroquinazolin-3(2H)-yl)-N-(1-(1-methyl-1H-pyrazol-4-yl)ethyl)acetamide]	100	100	100
CC(NC(=O)Cn1c(=O)[nH]c2ccccc2c1=O)c1ccco1 (stereo not drawn) [Compound 604, 2-(2,4-dioxo-1,4-dihydroquinazolin-3(2H)-yl)-N-(1-(furan-2-yl)ethyl)acetamide]	100	100	100
CC(NC(=O)Cn1c(=O)[nH]c2ccccc2c1=O)C1CCCC1 (stereo not drawn) [Compound 605, N-(1-cyclopentylethyl)-2-(2,4-dioxo-1,4-dihydroquinazolin-3(2H)-yl)acetamide]	100	100	100
CC(NC(=O)Cn1c(=O)[nH]c2ccccc2c1=O)c1cccs1 (stereo not drawn) [Compound 606, 2-(2,4-dioxo-1,4-dihydroquinazolin-3(2H)-yl)-N-(1-(thiophen-2-yl)ethyl)acetamide]	100	100	100
COc1cc2c(cc1OC)C(NC(=O)Cn1c(=O)[nH]c3ccccc3c1=O)CC2 (stereo not drawn) [Compound 703, N-(5,6-dimethoxy-2,3-dihydro-1H-inden-1-yl)-2-(2,4-dioxo-1,4-dihydroquinazolin-3(2H)-yl)acetamide]	100	100	100
O=C(Cn1c(=O)[nH]c2ccccc2c1=O)NCc1ccc(F)cc1F [Compound 5009, N-(2,4-difluorobenzyl)-2-(2,4-dioxo-1,4-dihydroquinazolin-3(2H)-yl)acetamide]	100	100	100
